From patent US20250263774A1, “DISCOVERING NEW XENOBIOTIC SUBSTRATES OF AN UDP-GLYCOSYLTRANSFERASE WITH A HIGH-THROUGHPUT METHOD” (priority 2024, published 2025)

Assays:
[1] = test system: UGT71G1; test: LC-MS/MS analysis of substrates and glycosylated products of the UGT71G1 reaction; type: biochemical, Medicago truncatula; conditions: for validation as UGT71G1 substrate (glycosylated product detected): substrate 10 μM, UDP-glucose 50 μM, pH 7.4, 37° C., 2 hours 3HF, 4 hours SN-38, 24 hours BPA
Method: Liquid chromatography-coupled mass spectrometric analysis of substrates and products. The glycosylation reaction for plant UGT71G1 enzyme extracted from E. coli BL21(DE3) cells containing UGT71G1-pET28a was performed similar to the glucuronidation reaction as those published previously 17 with minor modification. Briefly, the enzyme UGT71G1 (final concentration 0.05-0.5 μg/ml) was mixed with UDP-glucose (50 μM) and substrate (final concentration 10 μM) in 50 mM potassium phosphate buffer (pH 7.4) to reach a final volume of 200 μL. This reaction mixture was incubated at 37° C. and at various time points for each substrate to obtain the highest product-to-substrate ratio: 2 hours for 3HF, 4 hours for SN-38, and 24 hours for BPA; reactions were ended with the addition of 200 μL methanol. The samples were centrifuged at 14000 rpm for 15 mins and supernatant was subjected to UPLC-MS/MS system for analysis after appropriate dilution with 50% MeOH solution.
LC-MS/MS analysis was performed with an EXIONLC™ UHPLC system coupled with API 5500 Q-Trap triple quadrupole mass spectrometer. A BEH C18 column (50×2.1 mm I.D., 1.7 μm, Waters, Milford, MA, USA) was used for liquid chromatography. For mobile phase, mobile phase A (MPA) was 0.1% formic acid in water and mobile phase B (MPB) was 100% acetonitrile; flow rate was 0.45 mL/min with a column temperature of 45° C. An amount of 10 μL sample was injected for each analysis and it was eluted with the following mobile phase profile: 0-0.5 min, 5-10% MPB, 0.5-1.5 min, 10-40% MPB, 1.5-4.0 min, 40-90% MPB, 4.0-4.4 min, 90% MPB, 4.4-4.6 min, 90-5% MPB, 4.6-5.0 min, 5% MPB. Gradient mobile phase for mycophenolic acid and metabolites: 0-1.0 min, 5-20% MPB, 1.0-1.5 min, 20% MPB, 1.5-4.0 min, 20-40% MPB, 4.0-5.0 min, 40-90% MPB, 5.0-5.5 min, 90-5% MPB, 5.5-6.0 min, 5% MPB.
To validate our results from the high-throughput fluorescent assay, a liquid chromatography-coupled tandem mass spectrometric (LC-MS/MS) method was used to monitor the reaction of UGT71G1 with 3-hydroxyflavone, bisphenol A, and SN-38.

[2] = test system: UGT71G1; conditions: previous studies; cited from earlier work
[3] = patients that administer irinotecan; SN-38 excreted into the intestines via bile; cited from earlier work
[4] = test system: UGT71G1; test: High-throughput fluorescent assay for screening candidates of UGT glycosylation (UDP release, MicroMolar UDP assay kit); type: biochemical, Medicago truncatula; conditions: 6 μg UGT71G1, UDP-glucose 50 μM, substrate candidate 0.8 to 160 μM, 37° C. 45 minutes, ex 485 nm / em 535 nm
Method: High-throughput fluorescent assay for screening candidates of UGT glycosylation. Characterization of UDP formation involved the MicroMolar UDP assay kit (ProFoldin). For each reaction, reagents used from this kit include 3 μL of 10× buffer, 0.3 μL of 100×MUD reagent 1, and 0.3 μL of 100×MUD reagent 2. […] Each sample was then mixed with 30 μL of 1× fluorescence dye from the MICROMOLAR UDP assay kit and fluorescence was measured immediately with a BIOTEK SYNERGY H1 M florescence microplate reader at excitation 485 nm and emission 535 nm.
For a high-through method to robustly detect UGT activities with different glycosyl acceptor, it is necessary to target a change that is independent from the acceptor molecule. UDP-glycosyltransferases take UDP-glucose as a co-substrate; while the glucosyl moiety is transferred to the acceptor molecule, UDP is released as a by-product (FIG. 1A). Thus, UGT activities can be detected by the rise in UDP level in the reaction mixture. In our method to monitor an increase in UDP concentration, the UGT71G1 enzymatic reaction was coupled to the UDP assay kit, in which the release of UDP leads to an increase in fluorescence intensity.

| SMILES | validation as UGT71G1 substrate (glycosylated product detected) [1] | glycosylation of hydroxyl groups by UGT71G1 [2] | other results |
| --- | --- | --- | --- |
| CC(C)(c1ccc(O)cc1)c1ccc(O)cc1 [Sample 135, Bisphenol A] | validated | – | products formed in the reaction catalyzed by UGT71G1 ([1]; BPA 10 μM, 24 hours, major monoglycosylated, minor diglycosylated): two products |
| O=c1c(-c2ccc(O)cc2)coc2cc(O)cc(O)c12 [Sample 88, Genistein] | – | glycosylates multiple hydroxyl groups | – |
| COc1ccc(-c2coc3cc(O)cc(O)c3c2=O)cc1 [Sample 130, Biochanin A] | – | glycosylates multiple hydroxyl groups | – |
| CCc1c2c(nc3ccc(O)cc13)-c1cc3c(c(=O)n1C2)COC(=O)[C@]3(O)CC [Sample 58, 7-Ethyl-10-hydroxycamptothecin] | validated | – | – |
| CCc1c2c(nc3ccc(OC(=O)N4CCC(N5CCCCC5)CC4)cc13)-c1cc3c(c(=O)n1C2)COC(=O)[C@]3(O)CC [irinotecan] | – | – | patients experiencing diarrhea [3]: 25% |
| O=c1c(O)c(-c2ccccc2)oc2ccccc12 [Sample 26, 3-Hydroxyflavone] | validated | – | fold increase in fluorescent signal / fluorescence intensity with UGT71G1, comparing to the condition without UGT71G1 [4]: 30 fold |
